Results on 5 molecules are retold here after paper PMC8472513, “(−)-6-epi-Artemisinin, a Natural Stereoisomer of (+)-Artemisinin in the Opposite Enantiomeric Series, from the Endemic Madagascar Plant Saldinia proboscidea, an Atypical Source” (Molecules, 2021).

By CC50 is commonly meant the concentration that lowers cell viability or growth by half. As a reminder, the EC50 is the concentration at which the effect is half-maximal.

The subject of data set [1] is W2 apoptotic competent and D3 apoptotic deficient mouse epithelial cell lines. In words: apoptosis induction assay (MTT, W2 vs D3 cells). The class given is cell-based. To be noted: 48 h. An excerpt: However, the antiproliferative activity of different artemisinin isomers has never been studied in the past. […] To address this subject, we performed an apoptosis induction assay with compound 2 in order to evaluate the effect of the change in configurations on this activity. To develop a cell-based assay specific for the identification of apoptosis-inducing compounds that are potential antiproliferative agents, we used two genetically engineered mouse epithitial cell lines: W2 apoptotic competent and D3 apoptotic deficient. Compounds that have the capacity to kill W2 and not D3 cells are consistent with proapoptotic, potentially antiproliferative activity. Compounds that meet these criteria activate apoptosis upstream in a pathway that requires Bax and Bak. […]
Apoptosis induction in the presence of compound 2 was carried out as follows. […] Cell viability was determined using a modification of the MTT assay, where the reduction of yellow tertazolium salt (MTT-3-(4,5-Dimethylthiazol-2-yl)-2,5) to purple formazan indicates mitochondrial activity, and thus cell viability. […] After 30 min incubation at 37 °C with shaking, absorbance was read at 570 nm on a Spectra MAX 250 (Molecular Devices) plate reader. Differential growth from time 0 to 48 h was calculated. […]

Another data set can be described thus: in vitro. To be noted: African green monkey, CC50, cytotoxicity against Vero E6 cells, CCK8.
The next data set concerns haem polymerization. Put plainly: haem polymerization inhibitory activity (HPIA) assay. The class given is biochemical. The settings on record: haematin, pH 2.6, 37 °C, 24 h; read-out: IC50, inhibition of haem polymerization formation. The protocol:
Antimalarial activity was tested to (−)-6-epi-artemisinin (2) based on inhibition of haem polymerization. Haem is a by-product of haemoglobin digestion […]. It is potentially toxic to biological membranes and parasite enzymes, and it is thus sequestered in the form of an insoluble crystalline polymer, haemozoin or malaria pigment. Identifying molecules that interfere with haem polymerization is the basic principle of the assay. Haem can be polymerized in vitro, in the absence of proteins, from a solution of haematin at 70 °C or 37 °C at acidic pH. In vitro quantification of haem polymerization allows the identification of molecules with haem polymerization inhibitory activity (HPIA) and the assessment of their HPIA, relative to that of standard antimalarials like chloroquine.
100 microliters of a 0.5 mM solution of haematin, previously dissolved in 0.1 M NaOH, was distributed in 96-well U-bottomed microplates. […] The DMSO-soluble fraction (fraction II) was collected, and the pellet, consisting of a pure precipitate of haematin, was dissolved in 0.1 M NaOH (fraction III) for spectroscopic quantification. […] The amount of haematin was determined by measuring the absorbance at 405 nm using a microtiter plate reader. […]
Statistical analysis. […] Data were analyzed by Excel Microsoft. […]

Data set [2] deals with SARS-CoV-2. Put plainly: microbe, parasite or virus in culture. The class given is cell-based. The settings on record: Vero E6 cells; for EC50: MOI 0.01, 24 h post infection, read-out: EC50, SARS-CoV-2 inhibitory assay.
The next data set has as its system Vero E6 cells. To be noted: read-out: CC50, cytotoxicity against Vero E6 cells; CCK8.
For data set [3], the system named is SARS-CoV-2. On the set-up: method as in PMID 32786284. The settings on record: read-out: EC50, inhibitory effect on SARS-CoV-2; cited from earlier work.
Another data set has as its system MCF breast cancer cells. To be noted: read-out: IC50, antiproliferative activity, cited from earlier work.

Structures are written as SMILES. Where two headings read alike, the source gives them in different places. A value given as a limit tells only on which side of the number the result lay.

As for `CC1CCC2C(C)C(=O)OC3OC4(C)CCC1C32OO4` (single isomer, unassigned; (-)) [compound 2, (−)-6-epi-artemisinin], the IC50 in data set [1] (Mus musculus, Epithelial cell, read-out: IC50, induction of apoptosis, W2/D3 cells, 48 h, MTT) was 10 µM; in data set [1] (read-out: IC50, induction of apoptosis, W2/D3 cells, MTT), 11 ± 0.71 µM; in the data set on haem polymerization it was 0.0035 ± 2e-06 µM. The CC50 in “in vitro” was above 200 µM; with Vero E6 cells, above 250 µM. In addition, the EC50 with SARS-CoV-2 [2] (Severe acute respiratory syndrome coronavirus 2, Vero C1008, 24 h) came to 49 ± 0.32 µM. Also, the “inhibition of growth of SARS-CoV-2 (in words)” value (shortened to “inhibition”) in the data set on SARS-CoV-2 [2] is given as “inhibited the growth of SARS-CoV-2”.

Turning to `CCN(CC)CCCC(C)Nc1ccnc2cc(Cl)ccc12` (stereo not drawn) [chloroquine, reference compound], the IC50 with haem polymerization was found to be 0.018 ± 1e-06 µM.

For the molecule `C[C@@H]1CC[C@H]2[C@@H](C)C(=O)O[C@@H]3O[C@@]4(C)CC[C@@H]1[C@]32OO4` [compound 1, (+)-artemisinin], the EC50 in the data set on SARS-CoV-2 [3] is 64 µM. In the data set with SARS-CoV-2 [2], the “inhibition” value is listed as “inhibited the growth of SARS-CoV-2”. For the same molecule, in the data set with MCF breast cancer cells (MCF breast cancer cells), the IC50 is 9.13 ± 0.07 µM.

Consider `C[C@H]1[C@@H](O)O[C@@H]2O[C@@]3(C)CC[C@H]4[C@H](C)CC[C@@H]1[C@@]24OO3` [dihydroartemisinin], for which the IC50 with MCF breast cancer cells (these same cells (MCF)) is 5.27 ± 0.01 µM.

For `CC1CCC2C(C)C(=O)OC3OC4(C)CCC1C32OO4` (stereo not drawn) [compound 3, 9 epimer of 2], in the data set on SARS-CoV-2 [2], the “inhibition” value is recorded as “inhibited the growth of SARS-CoV-2” and the EC50 amounted to 54 ± 0.27 µM. In the data set with Vero E6 cells, the CC50 is above 200 µM.
